Experimental data from patent US20240374600A1, “METHODS AND COMPOSITIONS FOR TREATING CANCER” (Onconova Therapeutics, Inc., priority 2021, published 2024).
pIC50: −log10 of the molar value. “Also recorded” adds a separate entry of the source.

Columns and labels:
CDK4/cyclin D1 = CDK4/cyclin D1 (Homo sapiens, UniProt P11802); experiment: In vitro multi-kinase activity, IC50; assay type: biochemical
Description: (§1) The study evaluates the IC50 values (in nM) of Compound 1 in comparison to FDA approved CDK 4/6 inhibitors Comparator 1, Comparator 2 and Comparator 3, which represent treatment advances for HR+ HER^2-metastatic breast cancer. IC50 value is a quantitative measure indicating the concentration needed to inhibit the listed kinase by 50%.

CSF1R = CSF1R (Homo sapiens, UniProt P07333); experiment: In vitro multi-kinase activity, IC50; assay type: biochemical
Description: as §1

KIT = KIT (Homo sapiens, UniProt P10721); experiment: In vitro multi-kinase activity, IC50; assay type: biochemical
Description: as §1

CDK16/cyclin Y = CDK16/cyclin Y (Homo sapiens, UniProt Q00536); experiment: In vitro multi-kinase activity, IC50; assay type: biochemical
Description: as §1

CDK7/cyclin H = CDK7/cyclin H (Homo sapiens, UniProt P50613); experiment: In vitro multi-kinase activity, IC50; assay type: biochemical
Description: as §1

CDK6/cyclin D1 = CDK6/cyclin D1 (Homo sapiens, UniProt Q00534); experiment: In vitro multi-kinase activity, IC50; assay type: biochemical
Description: as §1

CDK17/cyclin Y = CDK17/cyclin Y (Homo sapiens, UniProt Q00537); experiment: In vitro multi-kinase activity, IC50; assay type: biochemical
Description: as §1

CDK9/cyclinT1 = CDK9/cyclinT1 (Homo sapiens, UniProt P50750); experiment: In vitro multi-kinase activity, IC50; assay type: biochemical
Description: as §1

CDK2/cyclin E = CDK2/cyclin E (Homo sapiens, UniProt P24941); experiment: In vitro multi-kinase activity, IC50; assay type: biochemical
Description: as §1

CDK1/cyclin B = CDK1/cyclin B (Homo sapiens, UniProt P06493); experiment: In vitro multi-kinase activity, IC50; assay type: biochemical
Description: as §1

ARK 5/NUAK 1 = target: T1, ARK 5/NUAK 1 (Homo sapiens, UniProt O60285); experiment: In vitro multi-kinase activity, IC50; assay type: biochemical
T1 sequence (O60285 1-661): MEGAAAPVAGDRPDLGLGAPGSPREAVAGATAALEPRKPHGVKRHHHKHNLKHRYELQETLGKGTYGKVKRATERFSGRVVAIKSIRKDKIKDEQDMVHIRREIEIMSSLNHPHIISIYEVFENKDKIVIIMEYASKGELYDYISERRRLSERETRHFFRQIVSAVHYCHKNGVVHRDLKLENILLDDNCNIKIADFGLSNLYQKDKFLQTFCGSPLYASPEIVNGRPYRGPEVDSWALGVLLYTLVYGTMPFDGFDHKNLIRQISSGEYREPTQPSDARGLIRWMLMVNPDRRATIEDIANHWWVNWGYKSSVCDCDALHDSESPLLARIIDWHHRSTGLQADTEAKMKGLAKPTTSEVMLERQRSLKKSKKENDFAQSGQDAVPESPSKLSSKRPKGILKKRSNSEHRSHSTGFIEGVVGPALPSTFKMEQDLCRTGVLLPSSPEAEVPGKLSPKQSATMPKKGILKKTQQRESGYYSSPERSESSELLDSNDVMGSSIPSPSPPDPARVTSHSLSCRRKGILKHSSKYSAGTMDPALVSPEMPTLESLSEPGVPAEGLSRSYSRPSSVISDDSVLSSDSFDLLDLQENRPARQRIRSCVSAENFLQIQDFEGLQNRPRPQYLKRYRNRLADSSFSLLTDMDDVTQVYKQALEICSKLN
Description: as §1

[1] = Neutropenia in preclinical models (FIG. 2); assay type: in vivo; conditions: in comparison to Comparator 1
[2] = Phase 1 dose-escalation study in patients with advanced cancer; assay type: in vivo, human
Method: The study is a phase 1 dose-escalation study of 8-cyclopentyl-2-((4-(4-methylpiperazin-1-yl)phenyl)amino)-7-oxo-7,8-dihydropyrido[2,3-d]pyrimidine-6-carbonitrile (Compound 1) in patients with advanced cancer. Patients are dosed daily in 28-day cycles with Compound 1 starting at 40 mg daily with dosages escalating 40 mg/day increments for each new cohort or only on days 1-21 of 28-day cycles. […] Adverse events reported are Grade 1 or 2 in severity and are predominantly gastrointestinal (GI) disorders.

kinases = experiment: KinMap kinase inhibition profile (FIG. 1); conditions: compared to a kinase inhibitor that is not compound 1

KIT, sequence (P10721 26-976): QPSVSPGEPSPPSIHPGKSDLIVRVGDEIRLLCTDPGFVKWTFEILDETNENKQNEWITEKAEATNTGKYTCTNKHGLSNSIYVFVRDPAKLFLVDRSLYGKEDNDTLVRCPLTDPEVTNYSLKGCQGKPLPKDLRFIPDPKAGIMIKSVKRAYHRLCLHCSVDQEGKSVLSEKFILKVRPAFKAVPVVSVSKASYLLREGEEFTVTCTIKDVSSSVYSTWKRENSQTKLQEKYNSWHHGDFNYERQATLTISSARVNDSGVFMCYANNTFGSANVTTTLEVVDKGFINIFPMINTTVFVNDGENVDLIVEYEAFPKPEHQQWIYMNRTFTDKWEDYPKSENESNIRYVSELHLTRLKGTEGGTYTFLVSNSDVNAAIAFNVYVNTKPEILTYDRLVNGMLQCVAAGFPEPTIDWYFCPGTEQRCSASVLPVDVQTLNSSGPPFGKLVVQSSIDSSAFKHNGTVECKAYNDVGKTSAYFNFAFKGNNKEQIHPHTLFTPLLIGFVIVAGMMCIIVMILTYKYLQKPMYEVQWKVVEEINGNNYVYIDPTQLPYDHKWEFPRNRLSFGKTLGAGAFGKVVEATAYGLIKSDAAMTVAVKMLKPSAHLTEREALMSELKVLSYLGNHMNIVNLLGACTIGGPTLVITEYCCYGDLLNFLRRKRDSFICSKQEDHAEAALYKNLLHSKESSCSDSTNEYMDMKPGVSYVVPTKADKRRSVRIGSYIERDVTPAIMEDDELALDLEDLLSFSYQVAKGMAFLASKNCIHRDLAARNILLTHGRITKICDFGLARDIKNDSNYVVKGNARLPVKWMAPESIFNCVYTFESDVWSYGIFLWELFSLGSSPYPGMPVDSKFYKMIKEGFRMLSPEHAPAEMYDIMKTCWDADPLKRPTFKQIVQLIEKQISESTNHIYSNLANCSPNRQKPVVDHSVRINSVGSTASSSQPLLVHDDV
CDK16/cyclin Y, sequence (Q00536 whole entry): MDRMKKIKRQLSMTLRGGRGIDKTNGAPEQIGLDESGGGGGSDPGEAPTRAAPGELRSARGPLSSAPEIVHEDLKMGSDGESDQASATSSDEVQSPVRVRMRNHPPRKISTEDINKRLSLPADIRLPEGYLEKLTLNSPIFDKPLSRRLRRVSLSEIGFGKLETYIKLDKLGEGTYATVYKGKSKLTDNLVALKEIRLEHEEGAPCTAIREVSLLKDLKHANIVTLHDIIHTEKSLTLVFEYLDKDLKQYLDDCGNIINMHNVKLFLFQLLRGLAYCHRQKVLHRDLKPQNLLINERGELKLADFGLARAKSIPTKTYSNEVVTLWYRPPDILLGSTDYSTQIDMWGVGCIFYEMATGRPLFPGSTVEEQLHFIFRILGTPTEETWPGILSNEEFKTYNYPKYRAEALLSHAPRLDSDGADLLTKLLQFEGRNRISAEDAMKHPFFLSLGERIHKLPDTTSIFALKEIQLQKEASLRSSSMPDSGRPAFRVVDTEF
CDK16/cyclin Y, sequence (Q8ND76 whole entry partner): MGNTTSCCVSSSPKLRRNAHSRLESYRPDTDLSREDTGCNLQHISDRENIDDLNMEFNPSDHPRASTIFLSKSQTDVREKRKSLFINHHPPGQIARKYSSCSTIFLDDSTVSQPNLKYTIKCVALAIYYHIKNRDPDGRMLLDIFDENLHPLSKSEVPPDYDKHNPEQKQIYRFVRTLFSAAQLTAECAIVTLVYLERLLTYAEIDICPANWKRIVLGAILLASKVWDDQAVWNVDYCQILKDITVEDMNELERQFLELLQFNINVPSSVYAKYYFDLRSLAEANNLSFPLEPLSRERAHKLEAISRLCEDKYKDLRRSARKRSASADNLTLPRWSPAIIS
CSF1R, sequence (P07333 20-972): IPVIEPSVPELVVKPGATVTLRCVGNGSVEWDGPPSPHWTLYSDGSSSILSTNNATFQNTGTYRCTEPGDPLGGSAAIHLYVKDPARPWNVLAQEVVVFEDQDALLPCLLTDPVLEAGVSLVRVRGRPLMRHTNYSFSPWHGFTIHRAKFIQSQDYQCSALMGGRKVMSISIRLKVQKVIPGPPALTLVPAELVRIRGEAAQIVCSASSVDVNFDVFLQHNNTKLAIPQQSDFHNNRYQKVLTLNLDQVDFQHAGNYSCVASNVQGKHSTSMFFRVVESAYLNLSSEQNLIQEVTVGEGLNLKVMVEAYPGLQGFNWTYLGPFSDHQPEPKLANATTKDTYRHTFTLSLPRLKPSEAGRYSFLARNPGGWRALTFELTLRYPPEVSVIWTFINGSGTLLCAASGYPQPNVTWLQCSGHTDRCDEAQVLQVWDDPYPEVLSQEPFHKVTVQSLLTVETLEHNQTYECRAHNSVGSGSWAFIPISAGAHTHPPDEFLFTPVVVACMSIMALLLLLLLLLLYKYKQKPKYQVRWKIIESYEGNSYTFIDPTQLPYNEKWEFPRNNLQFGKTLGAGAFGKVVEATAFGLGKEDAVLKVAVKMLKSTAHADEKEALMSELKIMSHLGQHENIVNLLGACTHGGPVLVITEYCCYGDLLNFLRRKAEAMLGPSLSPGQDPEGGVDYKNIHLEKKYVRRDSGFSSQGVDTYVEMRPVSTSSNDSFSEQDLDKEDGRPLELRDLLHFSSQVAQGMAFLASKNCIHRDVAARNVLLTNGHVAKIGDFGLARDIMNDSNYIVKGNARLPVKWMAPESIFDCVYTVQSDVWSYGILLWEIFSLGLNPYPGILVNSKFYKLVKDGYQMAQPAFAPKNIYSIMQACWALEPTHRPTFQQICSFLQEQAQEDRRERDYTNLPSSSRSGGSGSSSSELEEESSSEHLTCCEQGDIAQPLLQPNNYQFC
CDK1/cyclin B, sequence (P06493 whole entry): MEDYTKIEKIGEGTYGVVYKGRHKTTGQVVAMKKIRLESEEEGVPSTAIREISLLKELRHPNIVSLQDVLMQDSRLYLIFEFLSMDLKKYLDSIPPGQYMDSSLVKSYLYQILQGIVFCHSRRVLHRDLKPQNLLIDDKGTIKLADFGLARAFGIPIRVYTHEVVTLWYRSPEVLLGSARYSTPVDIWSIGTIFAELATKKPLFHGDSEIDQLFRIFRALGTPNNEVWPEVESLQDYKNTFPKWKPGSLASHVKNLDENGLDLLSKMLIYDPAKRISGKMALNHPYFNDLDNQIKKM
CDK1/cyclin B, sequence (P14635 whole entry partner): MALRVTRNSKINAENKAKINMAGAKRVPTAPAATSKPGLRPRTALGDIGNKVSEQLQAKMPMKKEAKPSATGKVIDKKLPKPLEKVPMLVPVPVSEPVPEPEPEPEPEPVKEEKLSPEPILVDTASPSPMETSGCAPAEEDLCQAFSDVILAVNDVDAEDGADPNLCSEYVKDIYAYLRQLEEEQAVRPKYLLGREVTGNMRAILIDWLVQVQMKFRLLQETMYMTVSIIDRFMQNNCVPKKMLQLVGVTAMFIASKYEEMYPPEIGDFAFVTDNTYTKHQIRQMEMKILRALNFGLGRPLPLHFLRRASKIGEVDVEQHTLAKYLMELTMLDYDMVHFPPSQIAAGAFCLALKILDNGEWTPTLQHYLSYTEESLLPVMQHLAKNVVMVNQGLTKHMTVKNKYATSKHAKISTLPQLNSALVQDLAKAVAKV
CDK6/cyclin D1, sequence (Q00534 whole entry): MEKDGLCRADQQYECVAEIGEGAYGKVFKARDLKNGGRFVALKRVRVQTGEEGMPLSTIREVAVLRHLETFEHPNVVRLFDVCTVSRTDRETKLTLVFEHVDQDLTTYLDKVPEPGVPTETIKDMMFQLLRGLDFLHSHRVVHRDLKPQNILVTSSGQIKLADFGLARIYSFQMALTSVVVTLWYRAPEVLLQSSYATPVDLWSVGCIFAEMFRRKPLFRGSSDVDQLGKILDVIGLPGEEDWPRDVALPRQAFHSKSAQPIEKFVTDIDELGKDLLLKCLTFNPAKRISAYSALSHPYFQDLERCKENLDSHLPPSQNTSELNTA
CDK6/cyclin D1, sequence (P24385 whole entry partner): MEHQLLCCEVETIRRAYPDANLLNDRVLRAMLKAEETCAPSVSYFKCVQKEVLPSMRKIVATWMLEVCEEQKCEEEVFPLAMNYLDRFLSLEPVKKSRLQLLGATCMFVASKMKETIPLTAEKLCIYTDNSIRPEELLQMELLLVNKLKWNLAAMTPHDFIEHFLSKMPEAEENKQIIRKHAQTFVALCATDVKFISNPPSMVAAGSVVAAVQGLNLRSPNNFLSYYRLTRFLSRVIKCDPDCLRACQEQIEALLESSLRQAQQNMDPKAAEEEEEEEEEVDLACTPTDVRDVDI
CDK17/cyclin Y, sequence (Q00537 whole entry): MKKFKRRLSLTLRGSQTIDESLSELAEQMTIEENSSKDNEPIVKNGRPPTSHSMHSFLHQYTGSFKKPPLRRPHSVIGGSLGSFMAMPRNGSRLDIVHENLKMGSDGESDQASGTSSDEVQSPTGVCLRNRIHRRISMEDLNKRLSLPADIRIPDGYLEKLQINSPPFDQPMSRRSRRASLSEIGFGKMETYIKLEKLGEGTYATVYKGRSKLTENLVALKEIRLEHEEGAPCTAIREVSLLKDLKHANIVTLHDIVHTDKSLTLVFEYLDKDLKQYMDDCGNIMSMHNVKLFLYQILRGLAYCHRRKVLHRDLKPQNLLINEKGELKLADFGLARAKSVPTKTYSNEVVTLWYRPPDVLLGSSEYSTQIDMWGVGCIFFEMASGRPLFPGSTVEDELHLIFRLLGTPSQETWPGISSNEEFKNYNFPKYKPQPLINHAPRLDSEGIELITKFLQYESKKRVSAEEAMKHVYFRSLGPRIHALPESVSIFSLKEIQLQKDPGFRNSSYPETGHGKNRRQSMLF
CDK17/cyclin Y, sequence (Q8ND76 whole entry partner): as the sequence (Q8ND76 whole entry partner) above

**Q.** Which results are given for `CN1CCN(c2ccc(Nc3ncc4cc(C#N)c(=O)n(C5CCCC5)c4n3)cc2)CC1` [Compound 1, 8-cyclopentyl-2-((4-(4-methylpiperazin-1-yl)phenyl)amino)-7-oxo-7,8-dihydropyrido[2,3-d]pyrimidine-6-carbonitrile]?
**A.** pIC50 (CDK4/cyclin D1): 8.70; pIC50 (CSF1R): 9.15; pIC50 (KIT): 8.07; pIC50 (CDK16/cyclin Y): 7.60; pIC50 (CDK7/cyclin H): 5.42; pIC50 (CDK6/cyclin D1): 9.22; pIC50 (CDK17/cyclin Y): 7.85; pIC50 (CDK9/cyclinT1): 7.32; pIC50 (CDK2/cyclin E): 7.16; pIC50 (CDK1/cyclin B): 6.29; pIC50 (ARK 5/NUAK 1): 8.30; neutropenia [1]: reduced Neutropenia; also recorded: less neutropenia; dose-limiting toxicities ([2]; 200 mg/day cohort, oral, daily in 28-day cycles): No dose-limiting toxicities; severity of adverse events reported ([2]; predominantly gastrointestinal (GI) disorders): Grade 1 or 2; inhibition profile by KinMap (kinases): wider inhibition profile
